Data taken from publication PMC8329300, “X-ray crystallography reveals molecular recognition mechanism for sugar binding in a melibiose transporter MelB” (Communications Biology, 2021).

Tests used:
[1] = molecular target: T1, D59A MelBSt (Salmonella typhimurium, UniProt P30878, D59A); assay: Trp→dansyl galactoside (D2G) FRET time trace (D59A); type: binding; conditions: no Na+ or Li+ stimulation
T1 construct: Cys scanning mutagenesis for the full-length MelBSt; His10 (C); made in house; host or cells: E. coli DW2
T1 sequence (P30878 whole entry D59A): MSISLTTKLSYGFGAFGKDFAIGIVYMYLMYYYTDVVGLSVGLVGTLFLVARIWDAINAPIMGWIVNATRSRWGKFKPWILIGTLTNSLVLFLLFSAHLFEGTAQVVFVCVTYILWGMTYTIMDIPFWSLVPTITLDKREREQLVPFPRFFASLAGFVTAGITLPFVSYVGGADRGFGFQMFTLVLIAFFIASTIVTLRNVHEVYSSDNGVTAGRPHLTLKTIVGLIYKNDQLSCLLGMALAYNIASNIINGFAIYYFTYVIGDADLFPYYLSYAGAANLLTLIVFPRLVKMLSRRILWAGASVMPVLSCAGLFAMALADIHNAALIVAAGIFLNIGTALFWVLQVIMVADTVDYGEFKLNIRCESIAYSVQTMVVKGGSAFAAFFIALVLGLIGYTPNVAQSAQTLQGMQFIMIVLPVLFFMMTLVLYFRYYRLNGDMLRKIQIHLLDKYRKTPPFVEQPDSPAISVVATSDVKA
Experimental: Fig. 1 Functional characterizations. a [^3H] Melibiose transport time course with intact cells. E. coli DW2 strain (melB^−, lacZ^−Y^−) expressed with the WT, D59C, or D59A MelBSt mutants were subjected to [^3H]melibiose active transport assay at 0.4 mM and 10 mCi/mmol in the presence of 20 mM or 100 mM NaCl or LiCl by a fast filtration method. Inset, melibiose fermentation assay. Transformants with DW2 strain were plated on MacConkey agar plates containing 30 mM melibiose as the sole carbohydrate source and pH sensor neutral red, and incubated at 37 °C for 16–18 h before imaging. Number of tests = 3, from different batch of cells or duplicate measurements from same batch of sample. b Ligand binding by Trp→dansyl galactoside (D^2G) FRET assay. Purified proteins at 1 μM concentration in 20 mM Tris-HCl, pH 7.5, 100 mM CholCl, 10% glycerol, and 0.03% UDM were subjected to steady-state fluorescence measurements as described in Methods. […]
Steady-state fluorescence measurements were performed with an AMINCO-Bowman series 2 spectrometer with purified MelBSt at 1 μM in 20 mM Tris-HCl, pH 7.5, 100 mM CholCl, 10% glycerol, 0.03% UDM. Using an excitation wavelength at 290 nm, the emission intensity was recorded at 490 nm. […]

[2] = test system: E. coli DW2 strain (melB−, lacZ−Y−); assay: [3H]Melibiose transport time course with DW2 intact cells; type: cell-based, Escherichia coli; set-up: unit not given here; conditions: 0.4 mM [3H]melibiose
Experimental: Fig. 1 Functional characterizations. a [^3H] Melibiose transport time course with intact cells. E. coli DW2 strain (melB^−, lacZ^−Y^−) expressed with the WT, D59C, or D59A MelBSt mutants were subjected to [^3H]melibiose active transport assay at 0.4 mM and 10 mCi/mmol in the presence of 20 mM or 100 mM NaCl or LiCl by a fast filtration method. Inset, melibiose fermentation assay. Transformants with DW2 strain were plated on MacConkey agar plates containing 30 mM melibiose as the sole carbohydrate source and pH sensor neutral red, and incubated at 37 °C for 16–18 h before imaging. Number of tests = 3, from different batch of cells or duplicate measurements from same batch of sample. b Ligand binding by Trp→dansyl galactoside (D^2G) FRET assay. Purified proteins at 1 μM concentration in 20 mM Tris-HCl, pH 7.5, 100 mM CholCl, 10% glycerol, and 0.03% UDM were subjected to steady-state fluorescence measurements as described in Methods. On the time-trace, 1.8 μL of 1 mM D^2G at 10 μM was added into 180 μL of protein solutions at 1-min point, followed by supplying 10 μL of 5 mM DDMB or 5 mM α-NPG to displace the bound D^2G. For testing Na^+ or Li^+ binding, they are added into the solution before displacement with the second sugar. The structure of DDMB or α-NPG is shown in a chair form, and the carbon positions are labeled. Glycosidic bonds are indicated by arrows. Both are α-galactosides containing a substituent at the anomeric carbon-1. The data were from duplicate measurements.
The overexpression of MelBSt was carried out in the E. coli DW2 strain (melA^+, melB^−, and lacZ^−Y^−) from a constitutive expression plasmid pK95ΔAH/MelBSt/CHis10[9],[28],[33]. The D59C or D59A mutant with Cys or Ala at the position 59, respectively, was constructed previously[9] or in this study by QuikChange Site-Directed Mutagenesis kit and confirmed by DNA sequencing analysis. E. coli DW2 cells containing a given plasmid were grown in Luria-Bertani (LB) broth (5 g yeast extract and 10 g tryptone per liter with 171 mM NaCl) with 100 mg/L of ampicillin in a 37 °C shaker. The overnight cultures were diluted by 5% with LB broth supplemented with 0.5% glycerol and 100 mg/L of ampicillin, and constitutive overexpression was obtained by shaking at 30 °C for another 5 h.
E. coli DW2 cells expressing MelBSt were washed with 100 mM KPi, pH 7.5, to remove Na^+ contamination as described previously. The cell pellets were resuspended with the assay buffer (100 mM KPi, pH 7.5, 10 mM MgSO4) and adjusted to A420 of 10 (∼0.7 mg protein/ml). Using a fast filtration, transport time course at 0.4 mM melibiose (at specific activity of 10 mCi/mmol) was carried out in the absence or presence of NaCl or LiCl at 20 mM or 100 mM, respectively, and intracellular melibiose was determined as described previously.

In the case of `O=[N+]([O-])c1ccc(OC2OC(CO)C(O)C(O)C2O)cc1` [α-NPG, 4-nitrophenyl-α-D-galactopyranoside], the “ligand binding by Trp→D2G FRET” value [1] is reported as “binds”.
In the case of `OC[C@H]1O[C@H](OCC2O[C@@H](O)[C@H](O)[C@@H](O)[C@@H]2O)[C@H](O)[C@@H](O)[C@H]1O` (some centres unmarked) [Melibiose], the Melibiose transport ([2]; H+, Time 0.08333) is reported as 5.1051, the Melibiose transport ([2]; H+, Time 0.16667) is reported as 0.0051 and the Melibiose transport ([2]; H+, Time 0.5) is reported as 5.3907. The Melibiose transport ([2]; H+, Time 1) was 1.8156, the Melibiose transport ([2]; H+, Time 2) was 6.1659 and the Melibiose transport ([2]; H+, Time 5) was 3.5343. The Melibiose transport ([2]; H+, Time 10) was 0.765, the Melibiose transport ([2]; H+, Time 30) was 0.4743 and the Melibiose transport ([2]; Li+, 20 mM, Time 0.08333) was 4.9419. The Melibiose transport ([2]; Li+, 20 mM, Time 0.16667) was 5.658, the Melibiose transport ([2]; Li+, 20 mM, Time 0.5) was 3.542 and the Melibiose transport ([2]; Li+, 20 mM, Time 1) was 2.349. It also gave a Melibiose transport ([2]; Li+, 20 mM, Time 2) of 6.918, a Melibiose transport ([2]; Li+, 20 mM, Time 5) of 4.664 and a Melibiose transport ([2]; Li+, 20 mM, Time 10) of 5.3448. The Melibiose transport ([2]; Li+, 20 mM, Time 30) was 4.1259, the Melibiose transport ([2]; Li+, 100 mM, Time 0.08333) was 3.0914 and the Melibiose transport ([2]; Li+, 100 mM, Time 0.16667) was 1.7168. It also gave a Melibiose transport ([2]; Li+, 100 mM, Time 0.5) of 6.0378, a Melibiose transport ([2]; Li+, 100 mM, Time 1) of 1.9198 and a Melibiose transport ([2]; Li+, 100 mM, Time 2) of 3.77. It also gave a Melibiose transport ([2]; Li+, 100 mM, Time 5) of 5.9682, a Melibiose transport ([2]; Li+, 100 mM, Time 10) of 7.743 and a Melibiose transport ([2]; Li+, 100 mM, Time 30) of -0.2436. The Melibiose transport ([2]; Na+, 20 mM, Time 0.08333) was 5.1051, the Melibiose transport ([2]; Na+, 20 mM, Time 0.16667) was 0.0051 and the Melibiose transport ([2]; Na+, 20 mM, Time 0.5) was 5.3907. It also gave a Melibiose transport ([2]; Na+, 20 mM, Time 1) of 1.8156, a Melibiose transport ([2]; Na+, 20 mM, Time 2) of 6.1659 and a Melibiose transport ([2]; Na+, 20 mM, Time 5) of 3.5343. It also gave a Melibiose transport ([2]; Na+, 20 mM, Time 10) of 0.765, a Melibiose transport ([2]; Na+, 20 mM, Time 30) of 0.4743 and a Melibiose transport ([2]; Na+, 100 mM, Time 0.08333) of 0.1281. For the same molecule, the Melibiose transport ([2]; Na+, 100 mM, Time 0.16667) was 1.6531, the Melibiose transport ([2]; Na+, 100 mM, Time 0.5) was 2.6962 and the Melibiose transport ([2]; Na+, 100 mM, Time 1) was 0.671. The Melibiose transport ([2]; Na+, 100 mM, Time 2) was -3.3611, the Melibiose transport ([2]; Na+, 100 mM, Time 5) was 0.2867 and the Melibiose transport ([2]; Na+, 100 mM, Time 10) was 0.0793. The Melibiose transport ([2]; Na+, 100 mM, Time 30) was -2.3912.
